Assay results published in patent US20070048247A1, “Deodorizing tablets” (Kimberly-Clark Worldwide, Inc., priority 2005, published 2007).

Legend:
[1] = Example 2 urine odor panel ranking (1.6 millimolar); set-up: species or system Human; settings: 1.6 millimolar in urine, after 24 hours
Text: The powders chosen for this example were powders of Acid Blue 25, Acid Blue 45, Acid Blue 129, FD&C Blue No.1 (a triarylmethane), Acid Green 27, Acid Green 41, and Mordant Violet 5 (Alizarin Violet 3R) (commercially available from Sigma-Aldrich Chemical Co., Inc. of St. Louis, Mo.), as well as D&C Green No. 5 (commercially available from Noveon Hilton Davis, Inc. of Cincinnati, Ohio). Human female urine was initially collected and pooled by a nurse on staff at Kimberly-Clark Corporation. […] Powders of the aforementioned quinone compounds were weighed and placed into the mason jars containing 50 milliliters of urine so that the final concentration of the powder was 1.6 millimolar (equivalent to 0.1 wt. %). […] A score of “10” was assigned to the most malodorous jar and a score of “1” was assigned to the least malodorous jar.

[2] = Example 3 urine odor panel ranking; set-up: species or system Human; settings: for Average Urine Odor Ranking (with statistical corrections), Avg. Score: ignoring statistical anomalies
Description: (§1) The effectiveness of various quinone compounds in reducing urine odor was compared. […] Human female urine was initially collected and pooled by a nurse on staff at Kimberly-Clark Corporation. The pooled urine was added to mason jars in 50-milliliter aliquots using an automated pipette aid. […] The mason jars were placed in an incubator overnight at 37° C.
(§2) In addition to ranking the jars from least to most malodorous (on a scale from 1 to 7, with 7 being the most malodors), panelists were also asked to judge whether there were secondary (non-urine) odors present and, if so, the extent that the secondary odors were unpleasant (on a scale from 1 to 5, with 5 being extremely unpleasant).
In this assessment, panelists were given instructions to rank the least malodorous jar as “1” and the most malodorous jar as “10,” remaining free to rank the other jars between 2-9.

[3] = Example 3 secondary (non-urine) odor ranking; set-up: species or system Human; settings: individual panelist scores, scale 1 to 5, 5 extremely unpleasant
Description: as §1, §2

[4] = Redox potential (redox potentiometry); type: physicochemical
Text: The ability of quinone compounds to accept electrons from another substance (i.e., be reduced) may be quantified using a technique known as redox potentiometry. Redox potentiometry is a technique that measures (in volts) the affinity of a substance for electrons—its electronegativity—compared with hydrogen (which is set at 0). Substances more strongly electronegative than (i.e., capable of oxidizing) hydrogen have positive redox potentials. Substances less electronegative than (i.e., capable of reducing) hydrogen have negative redox potentials. The greater the difference between the redox potentials of two substances (ΔE), the greater the vigor with which electrons will flow spontaneously from the less positive to the more positive (more electronegative) substance. As is well known in the art, redox potential may be measured using any of a variety of commercially available meters, such as an Oxidation Reduction Potential (ORP) tester commercially available from Hanna Instruments, Inc. of Woonsocket, R. I. The redox potential of the quinone compounds may, for instance, be less than about −50 millivolts (mV), in some embodiments less than about −150 mV, in some embodiments less than about −300 mV, and in some embodiments, less than about −500 mV. Although not always the case, the redox potential may vary based on the number and location of functional groups, such as sulfonic acid, on the quinone structure. For example, 2-sulfonic acid anthraquinone has a redox potential of −380 mV; 2,6-disulfonic acid anthraquinone has a redox potential of −325 mV; and 2,7-disulfonic acid anthraquinone has a redox potential of −313 mV. Likewise, 2-sulfonic acid naphthaquinone has a redox potential of −60 mV. The use of other functional groups may also have an affect on the ultimate redox potential of the compound. For example, Acid Blue 25, which also contains amino- and aramid functional groups, has a redox potential of −605 mV.

[5] = Example 7 urine odor panel ranking (16 millimolar); set-up: species or system Human; settings: 16 millimolar in urine, 1 least, 10 most urine malodor
Description: The effectiveness of various quinone compounds in reducing urine odor was compared. […] Human female urine was initially collected and pooled at Kimberly-Clark Corporation. The pooled urine was added to mason jars in 50-milliliter aliquots using an automated pipette aid. Powders of the aforementioned quinone compounds (commercially available from Sigma-Aldrich Chemical Co., Inc. of St. Louis, Missouri and Noveon Hilton Davis, Inc. of Cincinnati, Ohio) were weighed and placed into the mason jars containing 50 milliliters of urine so that the final concentration of the powder was 16 millimolar (equivalent to 1 wt. %). The mason jars were placed in an incubator overnight at 37° C. The experimental setup is set forth in more detail below in Table 21.
Jars were wrapped in foil and placed in an incubator at 37° C. overnight. The jars were divided into four groups (C-F), each sharing the same control jar of urine alone (no powder). Assessments were conducted the following day by asking panelists to rate each jar from 1 (least urine malodor) to 10 (most urine malodor).

[6] = Solubility of powder in urine
[7] = Example 1 urine odor panel ranking; set-up: species or system Human; settings: 8 millimolar in urine; for Avg. Ranking (odor) / Ranking 4 (number of panelists) / Ranking 5 (number of panelists) / Ranking 1 (number of panelists) / Ranking 3 (number of panelists) / Ranking 7 (number of panelists): 1 least, 10 most malodorous
Text: Human female urine was initially collected and pooled by a nurse on staff at Kimberly-Clark Corporation. […] Powders of Acid Blue 129 and Acid Green 27 (commercially available from Sigma-Aldrich Chemical Co., Inc. of St. Louis, Mo.), as well as D&C Green No. 5 (commercially available from Noveon Hilton Davis, Inc. of Cincinnati, Ohio), were then weighed and placed into the mason jars containing 50 milliliters of urine so that the final concentration of the powder was 8 millimolar (equivalent to 0.5 wt. %). […] A score of “10” was assigned to the most malodorous jar and a score of “1” was assigned to the least malodorous jar.

[8] = Example 5 urine odor panel ranking; set-up: species or system Human
Description: Assessments were conducted the following day by asking panelists to rate each jar from 1 (least urine malodor) to 8 (most urine malodor). The results are set forth below in Tables 15-18.

[9] = Example 6 urine odor panel ranking; set-up: species or system Human; settings: as Example 5, 1 least, 8 most urine malodor
Text: The quinone compounds chosen for this example were Alizarin Blue Black B, Remazol Brilliant Blue R and Acid Green 25. The results are set forth below in Tables 19 and 20.

[10] = Example 3 first grouping, 8 millimolar in urine, scale 1 to 7, 7 most malodorous
[11] = Example 7, 16 mM in 50 milliliters of urine
[12] = Example 3 top performers of both groupings, after 24 hours, 1 least, 10 most malodorous
[13] = Example 3 top performers, after 24 hours, 1 least, 10 most malodorous
[14] = Example 3 top performers, after 24 hours
[15] = Example 5 Group A, 8 mM in urine, 1 least, 8 most urine malodor
[16] = Example 5, 8 mM in 50 milliliters of urine
[17] = Example 3 second grouping, 8 millimolar in urine, 1 least malodorous
[18] = Example 5 Group B, 8 mM in urine, 1 least, 8 most urine malodor

SMILES: Cc1ccc(Nc2cccc3c2C(=O)c2cccc(Nc4ccc(C)cc4S(=O)(=O)[O-])c2C3=O)c(S(=O)(=O)[O-])c1.[Na+].[Na+]
- reducing odor (in words) [1]: did not perform as well in reducing odor as D&C Green No. 5
- Average Urine Odor Ranking, Avg. Score [2, 10]: 5.8
- Urine Odor Ranking 4 (number of panelists) [2, 10]: 1
- Urine Odor Ranking 6 (number of panelists) [2, 10]: 3
- Urine Odor Ranking 7 (number of panelists) [2, 10]: 1
- Secondary Odor Ranking ([3]; Example 3 first grouping): 1

SMILES: O=C1c2ccc(S(=O)(=O)O)cc2C(=O)c2ccc(S(=O)(=O)O)cc21 [2,6-disulfonic acid anthraquinone]
- redox potential [4]: −325 mV

SMILES: O=C1c2ccc(S(=O)(=O)O)cc2C(=O)c2cc(S(=O)(=O)O)ccc21 [2,7-disulfonic acid anthraquinone]
- redox potential [4]: −313 mV

SMILES: O=C1c2ccccc2C(=O)c2cc(S(=O)(=O)O)ccc21 [2-sulfonic acid anthraquinone]
- redox potential [4]: −380 mV

SMILES: O=C1C=C(S(=O)(=O)O)C(=O)c2ccccc21 [2-sulfonic acid naphthaquinone]
- redox potential [4]: −60 mV

SMILES: Nc1c(S(=O)(=O)[O-])cc(Nc2ccccc2)c2c1C(=O)c1ccccc1C2=O.[Na+] [Acid Blue 25]
- Average Rankings (Group C), Avg. Score ([5]; Example 7 Group C): 2.4
- Urine Odor Ranking 1 (number of panelists) ([5]; Example 7 Group C): 3
- Urine Odor Ranking 4 (number of panelists) ([5]; Example 7 Group C): 1
- Urine Odor Ranking 5 (number of panelists) ([5]; Example 7 Group C): 1
- redox potential [4]: −605 mV
- Soluble? [6, 11]: Mostly
- urine odor reduction (in words) ([2]; Example 3 first grouping): functioned effectively to reduce odor
- Average Urine Odor Ranking, Avg. Score [2, 10]: 3.0
- Urine Odor Ranking 1 (number of panelists) [2, 10]: 1
- Urine Odor Ranking 2 (number of panelists) [2, 10]: 1
- Urine Odor Ranking 3 (number of panelists) [2, 10]: 1
- Urine Odor Ranking 4 (number of panelists) [2, 10]: 1
- Urine Odor Ranking 5 (number of panelists) [2, 10]: 1
- Urine Odor Ranking 4 (number of panelists) [2, 12]: 1
- Urine Odor Ranking 7 (number of panelists) [2, 12]: 1
- Urine Odor Ranking 9 (number of panelists) [2, 12]: 2
- Urine Odor Ranking 10 (number of panelists) [2, 12]: 1
- Average Urine Odor Ranking, Avg. Score [2, 13]: 6.8
- Average Urine Odor Ranking (with statistical corrections), Avg. Score [2, 14]: 8.8
- Secondary Odor Ranking ([3]; Example 3 first grouping): 2
- Secondary Odor Ranking [3, 14]: 4

SMILES: CCCCc1ccc(Nc2ccc(Nc3ccc(CCCC)cc3S(=O)(=O)[O-])c3c2C(=O)c2ccccc2C3=O)c(S(=O)(=O)[O-])c1.[Na+].[Na+] [Acid Green 27]
- reducing urine malodor (in words) [7]: functioned effectively in reducing urine malodor
- Avg. Ranking (odor) ([7]; after 6 hours): 4.4
- Ranking 4 (number of panelists) ([7]; after 6 hours): 3
- Ranking 5 (number of panelists) ([7]; after 6 hours): 2
- Avg. Ranking (odor) ([7]; after 24 hours): 4.5
- Ranking 1 (number of panelists) ([7]; after 24 hours): 1
- Ranking 3 (number of panelists) ([7]; after 24 hours): 2
- Ranking 7 (number of panelists) ([7]; after 24 hours): 3
- Average Rankings (Group E), Avg. Score ([5]; Example 7 Group E): 6.2
- Urine Odor Ranking 1 (number of panelists) ([5]; Example 7 Group E): 1
- Urine Odor Ranking 5 (number of panelists) ([5]; Example 7 Group E): 1
- Urine Odor Ranking 7 (number of panelists) ([5]; Example 7 Group E): 1
- Urine Odor Ranking 8 (number of panelists) ([5]; Example 7 Group E): 1
- Urine Odor Ranking 10 (number of panelists) ([5]; Example 7 Group E): 1
- Average Rankings (Group A), Avg. Score [8, 15]: 4.25
- Urine Odor Ranking 3 (number of panelists) [8, 15]: 1
- Urine Odor Ranking 4 (number of panelists) [8, 15]: 2
- Urine Odor Ranking 6 (number of panelists) [8, 15]: 1
- Soluble? [6, 16]: Mostly
- Soluble? [6, 11]: Mostly
- Average Urine Odor Ranking, Avg. Score [2, 17]: 3.6
- Urine Odor Ranking 2 (number of panelists) [2, 17]: 2
- Urine Odor Ranking 4 (number of panelists) [2, 17]: 1
- Urine Odor Ranking 5 (number of panelists) [2, 17]: 2
- Urine Odor Ranking 2 (number of panelists) [2, 12]: 1
- Urine Odor Ranking 8 (number of panelists) [2, 12]: 2
- Urine Odor Ranking 9 (number of panelists) [2, 12]: 1
- Urine Odor Ranking 10 (number of panelists) [2, 12]: 1
- Average Urine Odor Ranking, Avg. Score [2, 13]: 6.4
- Average Urine Odor Ranking (with statistical corrections), Avg. Score [2, 14]: 8.8
- Secondary Odor Ranking ([3]; Example 3 second grouping): 2
- Secondary Odor Ranking [3, 14]: 4

SMILES: Cc1ccc(Nc2ccc(Nc3ccc(C)cc3S(=O)(=O)[O-])c3c2C(=O)c2ccccc2C3=O)c(S(=O)(=O)[O-])c1.[Na+].[Na+] [D&C Green No. 5]
- reducing urine malodor (in words) [7]: functioned effectively in reducing urine malodor
- Avg. Ranking (odor) ([7]; after 6 hours): 3.0
- Ranking 1 (number of panelists) ([7]; after 6 hours): 1
- Ranking 3 (number of panelists) ([7]; after 6 hours): 3
- Ranking 5 (number of panelists) ([7]; after 6 hours): 1
- Avg. Ranking (odor) ([7]; after 24 hours): 5.2
- Ranking 4 (number of panelists) ([7]; after 24 hours): 3
- Ranking 5 (number of panelists) ([7]; after 24 hours): 1
- Ranking 7 (number of panelists) ([7]; after 24 hours): 2
- Average Rankings, Avg. Score [9]: 6.25
- Urine Odor Ranking 5 (number of panelists) [9]: 2
- Urine Odor Ranking 7 (number of panelists) [9]: 1
- Urine Odor Ranking 8 (number of panelists) [9]: 1
- Average Rankings (Group D), Avg. Score ([5]; Example 7 Group D): 7
- Urine Odor Ranking 5 (number of panelists) ([5]; Example 7 Group D): 2
- Urine Odor Ranking 7 (number of panelists) ([5]; Example 7 Group D): 1
- Urine Odor Ranking 9 (number of panelists) ([5]; Example 7 Group D): 2
- odor reduction performance (in words) ([8]; Example 5 Group B): performed well
- Average Rankings (Group B), Avg. Score [8, 18]: 4.25
- Urine Odor Ranking 2 (number of panelists) [8, 18]: 1
- Urine Odor Ranking 3 (number of panelists) [8, 18]: 1
- Urine Odor Ranking 5 (number of panelists) [8, 18]: 1
- Urine Odor Ranking 7 (number of panelists) [8, 18]: 1
- Soluble? [6, 16]: Yes
- Soluble? [6, 11]: Yes
- urine odor reduction (in words) ([2]; Example 3 second grouping): did not perform as well compared to the other quinone compounds
- Urine Odor Ranking 4 (number of panelists) [2, 17]: 3
- Urine Odor Ranking 5 (number of panelists) [2, 17]: 2
- Urine Odor Ranking 2 (number of panelists) [2, 12]: 1
- Urine Odor Ranking 4 (number of panelists) [2, 12]: 1
- Urine Odor Ranking 7 (number of panelists) [2, 12]: 2
- Urine Odor Ranking 10 (number of panelists) [2, 12]: 1
- Average Urine Odor Ranking, Avg. Score [2, 13]: 6.0
- Average Urine Odor Ranking (with statistical corrections), Avg. Score [2, 14]: 7.0
- Secondary Odor Ranking ([3]; Example 3 second grouping): 4
- Secondary Odor Ranking [3, 14]: 4
